From patent US20120003661A1, “METHODS AND DEVICES FOR THE SELECTIVE DETECTION OF MICROORGANISMS” (C3 JIAN, INC., priority 2010, published 2012)
Entries after “also recorded” stand apart in the source; their conditions may differ. Ends that are not written are not given here.

Assays:
[1] = tested on: MRSA; test: MIC of antimicrobial peptides (Table 4); type: cell-based, Methicillin-resistant Staphylococcus aureus
[2] = tested on: B. subtilis; test: MIC of antimicrobial peptides (Table 4); type: cell-based, Bacillus subtilis; details: B. subtilis
[3] = tested on: A. niger; test: MIC of antimicrobial peptides (Table 4); type: cell-based, Aspergillus niger
[4] = tested on: A. baumannii; test: MIC of antimicrobial peptides (Table 4); type: cell-based, Acinetobacter baumannii
[5] = tested on: bacteria, fungi, and/or yeasts; type: binding; details: microorganism(s) listed as target(s) of the targeting peptide; wrapped target lists given cell by cell
[6] = tested on: S. pneumoniae; test: MIC of antimicrobial peptides (Table 4); type: cell-based, Streptococcus pneumoniae
[7] = tested on: C. difficile; test: MIC of antimicrobial peptides (Table 4); type: cell-based, Clostridium difficile
[8] = tested on: P. aeruginosa; test: MIC of antimicrobial peptides (Table 4); type: cell-based, Pseudomonas aeruginosa
[9] = tested on: S. mutans; test: MIC of antimicrobial peptides (Table 4); type: cell-based, Streptococcus mutans
[10] = tested on: S. epidermidis; test: MIC of antimicrobial peptides (Table 4); type: cell-based, Staphylococcus epidermidis
[11] = tested on: T. rubrum; test: MIC of antimicrobial peptides (Table 4); type: cell-based, Trichophyton rubrum

RESKLIAMADMIRRRI-NH2 [PF-545]
Organism MIC [1]: MRSA, 50 μM
Organism MIC [2]: B. subtilis, 25 μM
Organism MIC [3]: A. niger, 50 μM

GIVLIGLKLIPLLANVLR [PF-322]
Organism MIC [2]: B. subtilis, 50 μM

SKFKVLRKIIIKEYKGELMLSIQKQR [PF-530]
Organism MIC [4]: A. baumannii, 25 μM

RRGCTERLRRMARRNAWDLYAEHFY [PF-148]
Target(s) [5]: S. epidermidis, M. luteus, P. mirabilis,; also recorded: E. coli, P. aeruginosa,; also recorded: C. albicans, MRSA, S. pneumoniae,; also recorded: E. faecalis, C. jeikeium,; also recorded: C. jejuni, M. smegmatis
Organism MIC [2]: B. subtilis, 50 μM
Organism MIC [3]: A. niger, 50 μM

ASKQASKQASKQASKQASKQASRSLKNHLL [PF-523]
Organism MIC [6]: S. pneumoniae, 50 μM

LVLRICTDLFTFIKWTIKQRKS [PF-497]
Organism MIC [2]: B. subtilis, 50 μM

SLQSQLGPCLHDQRH [PF-448]
Organism MIC [6]: S. pneumoniae, 50 μM
Organism MIC [3]: A. niger, 25 μM

KNKKQTDILEKVKEILDKKKKTKSVGQKLY [PF-538]
Organism MIC [7]: C. difficile, 25 μM
Organism MIC [4]: A. baumannii, 25 μM

FQKPFTGEEVEDFQDDDEIPTII [PF-437]
Organism MIC [6]: S. pneumoniae, 50 μM

PDAPRTCYHKPILAALSRIVVTDR [PF-524]
Organism MIC [6]: S. pneumoniae, 50 μM

FIRKFLQKLHL [K-16]
Organism MIC [8]: P. aeruginosa, 12.5 μM
Organism MIC [1]: MRSA, 25 μM
Organism MIC [9]: S. mutans, 8 μM

LGLTAGVAYAAQPTNQPTNQPTNQPTNQPTNQPTNQPRW-NH2 [PF-520]
Organism MIC [6]: S. pneumoniae, 50 μM

GILKKLFTKVF [K-13]
Organism MIC [9]: S. mutans, 16 μM

KFQGEFTNIGQSYIVSASHMSTSLNTGK [PF-583]
Organism MIC [1]: MRSA, 50 μM
Target(s) [5]: C. albicans hyphae
Organism MIC [10]: S. epidermidis, 50 μM

LRKFLHKLF [K-14]
Organism MIC [9]: S. mutans, 8 μM

MIRIRSPTKKKLNRNSISDWKSNTSGRFFY [PF-283]
Organism MIC [11]: T. rubrum, 50 μM
Organism MIC [2]: B. subtilis, 50 μM
Organism MIC [10]: S. epidermidis, 50 μM

KLFKFLRKHLL [K-10]
Organism MIC [9]: S. mutans, 4 μM

NYAVVSHT [PF-209]
Organism MIC [1]: MRSA, 50 μM

SFMPEIQKNTIPTQMK [PF-512]
Organism MIC [6]: S. pneumoniae, 50 μM

VYSFLYVLVIVRKLLSMKKRIERL [PF-499]
Organism MIC [2]: B. subtilis, 50 μM

GWLKMFKKIIGKFGKF [K-21]
Organism MIC [9]: S. mutans, 8 μM

VMQSLYVKPPLILVTKLAQQN [PF-511]
Organism MIC [6]: S. pneumoniae, 50 μM

CGKLLEQKNFFLKTR [PF-521]
Organism MIC [6]: S. pneumoniae, 50 μM

LSEMERRRLRKRA-NH2 [PF-529]
Organism MIC [6]: S. pneumoniae, 50 μM
Organism MIC [3]: A. niger, 50 μM

VLPFPAIPLSRRRACVAAPRPRSRQRAS [PF-168]
Organism MIC [1]: MRSA, 50 μM
Target(s) [5]: yeast cells; also recorded: S. epidermidis, M. luteus, E. coli,; also recorded: C. albicans, MRSA, C. jeikeium,; also recorded: C. jejuni
Organism MIC [11]: T. rubrum, 50 μM
Organism MIC [3]: A. niger, 50 μM

MGIIAGIIKFIKGLIEKFTGK [PF-006]
Organism MIC [1]: MRSA, 50 μM
Target(s) [5]: S. epidermidis, M. luteus, E. coli,; also recorded: P. aeruginosa, MRSA, E. faecalis,; also recorded: C. jeikeium, C. jejuni
Organism MIC [2]: B. subtilis, 25 μM
Organism MIC [4]: A. baumannii, 50 μM

KILKFLFKQVF [K-11]
Organism MIC [9]: S. mutans, 4 μM

VYRKRKSILKIYAKLKGWH [K-2]
Organism MIC [9]: S. mutans, 12.5 μM

KFSDQIDKGQDALKDKLGDL [PF-525]
Organism MIC [6]: S. pneumoniae, 50 μM
Organism MIC [3]: A. niger, 50 μM

WSRVPGHSDTGWKVWHRW-NH2 [PF-547]
Organism MIC [9]: S. mutans, 12.5 μM
Organism MIC [11]: T. rubrum, 25 μM
Organism MIC [2]: B. subtilis, 25 μM

FELVDWLETNLGKILKSKSA-NH2 [PF-522]
Organism MIC [7]: C. difficile, 25 μM

KILKKLFKFVF [K-12]
Organism MIC [9]: S. mutans, 8 μM
